Assay results as given in patent publication US20220396565A1 (Hoffmann-La Roche Inc., priority 2020, published 2022).
Where a name gives a salt, the structure may show the parent alone. Read-outs that look alike come from different tables or passages of the source.

System: Acinetobacter baumannii ATCC17961
Assay: Antimicrobial susceptibility testing: 90% growth inhibitory concentration (IC90) determination, Iso-Sensitest broth
Type: cell-based
Conditions: Acinetobacter baumannii
Method: The in vitro antimicrobial activity of the compounds was determined according to the following procedure:
The assay used a 10-points Iso-Sensitest broth medium to measure quantitatively the in vitro activity of the compounds against Acinetobacter baumannii ATCC17978 or ATCC17961.
Stock compounds in DMSO were serially twofold diluted (e.g. range from 10 to 0.02 μM final concentration) in 384 wells microtiter plates and inoculated with 49 μl the bacterial suspension in Iso-Sensitest medium to have a final cell concentration of ˜5×10^(5) CFU/ml in a final volume/well of 50 ul/well. Microtiter plates were incubated at 35±2° C.
Bacterial cell growth was determined with the measurement of optical density at k=600 nm each 20 minutes over a time course of 16 h. Growth inhibition was calculated during the logarithmic growth of the bacterial cells with determination of the concentration inhibiting 50% (IC50) and 90% (IC90) of the growth.
Table 1 provides the 90% growth inhibitory concentrations (IC90) in micromoles per liter of the compounds of present invention obtained against the strain Acinetobacter baumannii ATCC17978 or ATCC17961.

[1] = ATCC17961, 90% growth inhibitory concentration, Acinetobacter baumannii ATCC17961, Iso-Sensitest broth, read-out: ATCC 17961 IC90

IC90 [1] | SMILES | IC90 (ATCC17961, read-out: ATCC 17961 IC90)
30 nM | Cn1c(-c2ccc(OC(F)F)c(F)c2F)cnc1C(=O)Nc1ccc(C(=O)N2CCC(C(=O)N[C@H]3CNC[C@H]3F)CC2)c(Cl)c1 [Example 44, 1-[2-chloro-4-[[5-[4-(difluoromethoxy)-2,3-difluoro-phenyl]-1-methyl-imidazole-2-carbonyl]amino]benzoyl]-N-[(3S,4R)-4-fluoropyrrolidin-3-yl]piperidine-4-carboxamide trifluoroacetate] | –
80 nM | CCOc1ccc(-c2cnc(C(=O)Nc3ccc(C(=O)N4CCN(C(=O)CC5(O)CCNCC5)CC4)c(Cl)c3)n2C)c(F)c1F [Example 183, N-[3-chloro-4-[4-[2-(4-hydroxy-4-piperidyl)acetyl]piperazine-1-carbonyl]phenyl]-5-(4-ethoxy-2,3-difluoro-phenyl)-1-methyl-imidazole-2-carboxamide formate] | –
40 nM | Cn1c(-c2ccc(OCF)c(F)c2F)cnc1C(=O)Nc1ccc(C(=O)N2CCN(C(=O)CC3(O)CNC3)CC2)c(Cl)c1 [Example 160, N-[3-chloro-4-[4-[2-(3-hydroxyazetidin-3-yl)acetyl]piperazine-1-carbonyl]phenyl]-5-[2,3-difluoro-4-(fluoromethoxy)phenyl]-1-methyl-imidazole-2-carboxamide formate] | –
110 nM | COc1ccc(-c2cnc(C(=O)Nc3ccc(C(=O)N4CCC(N)CC4)c(Cl)c3)n2C)c(F)c1F [Example 13, N-[4-(4-Aminopiperidine-1-carbonyl)-3-chloro-phenyl]-5-(2,3-difluoro-4-methoxy-phenyl)-1-methyl-imidazole-2-carboxamide formate] | –
140 nM | COc1ccc(-c2cnc(C(=O)Nc3ccc(C(=O)N4CC5(CC(C(=O)N6CCN[C@@H](CO)C6)C5)C4)c(Cl)c3)n2C)c(F)c1F [Example 41, N-[3-chloro-4-[6-[(3R)-3-(hydroxymethyl)piperazine-1-carbonyl]-2-azaspiro[3,3]heptane-2-carbonyl]phenyl]-5-(2,3-difluoro-4-methoxy-phenyl)-1-methyl-imidazole-2-carboxamide] | –
140 nM | COc1ccc(-c2cnc(C(=O)Nc3ccc(C(=O)N4CC(NC(=O)CN(C)C)C4)c(Cl)c3)n2C)c(F)c1F [Example 189, N-[3-chloro-4-[3-[[2-(dimethylamino)acetyl]amino]azetidine-1-carbonyl]phenyl]-5-(2,3-difluoro-4-methoxy-phenyl)-1-methyl-imidazole-2-carboxamide formate] | –
140 nM | COc1ccc(-c2cnc(C(=O)Nc3ccc(C(=O)N4CC(C(=O)N5CC(CN)C5)C4)c(Cl)c3)n2C)c(F)c1F [Example 66, N-[4-[3-[3-(aminomethyl)azetidine-1-carbonyl]azetidine-1-carbonyl]-3-chloro-phenyl]-5-(2,3-difluoro-4-methoxy-phenyl)-1-methyl-imidazole-2-carboxamide formate] | –
80 nM | COc1ccc(-c2cnc(C(=O)Nc3ccc(C(=O)N4CCN(C(=O)[C@@H]5CCN5)CC4)c(Cl)c3)n2C)c(F)c1F [Example 150, N-[4-[4-[(2S)-azetidine-2-carbonyl]piperazine-1-carbonyl]-3-chloro-phenyl]-5-(2,3-difluoro-4-methoxy-phenyl)-1-methyl-imidazole-2-carboxamide formate] | –
60 nM | COc1ccc(-c2cnc(C(=O)Nc3ccc(C(=O)N4CCN(C(=O)C5(O)CCNC5)CC4)c(Cl)c3)n2C)c(F)c1F (stereo not drawn) [Example 141, N-[3-chloro-4-[4-(3-hydroxypyrrolidine-3-carbonyl)piperazine-1-carbonyl]phenyl]-5-(2,3-difluoro-4-methoxy-phenyl)-1-methyl-imidazole-2-carboxamide formate] | –

The next lines start with the compound.

SMILES | IC90 [1] | IC90 (ATCC17961, read-out: ATCC 17961 IC90)
CC[C@@]1(O)CN[C@H](C(=O)N2CCN(C(=O)c3ccc(NC(=O)c4ncc(-c5ccc(OC)c(F)c5F)n4C)cc3Cl)CC2)C1 [Example 233, N-[3-chloro-4-[4-[(2S,4S)-4-ethyl-4-hydroxy-pyrrolidine-2-carbonyl]piperazine-1-carbonyl]phenyl]-5-(2,3-difluoro-4-methoxy-phenyl)-1-methyl-imidazole-2-carboxamide formate] | 130 nM | –
Cn1c(-c2ccc(OCF)c(F)c2Cl)cnc1C(=O)Nc1ccc(C(=O)N2CCC(C(=O)NC[C@@H]3CCNC3)CC2)c(Cl)c1 [Example 62, 1-[2-chloro-4-[[5-[2-chloro-3-fluoro-4-(fluoromethoxy)phenyl]-1-methyl-imidazole-2-carbonyl]amino]benzoyl]-N-[[(3R)-pyrrolidin-3-yl]methyl]piperidine-4-carboxamide formate] | 60 nM | –
COc1ccc(-c2cnc(C(=O)Nc3ccc(C(=O)N4CCN(C(=O)C5CC(C(N)=O)C5)CC4)c(Cl)c3)n2C)c(F)c1F (stereo not drawn) [Example 280, N-(4-(4-(3-carbamoylcyclobutane-1-carbonyl)piperazine-1-carbonyl)-3-chlorophenyl)-5-(2,3-difluoro-4-methoxyphenyl)-1-methyl-1H-imidazole-2-carboxamide] | 100 nM | –
COc1ccc(-c2cnc(C(=O)Nc3ccc(C(=O)N4CCC(NC(=O)CN(C)C)CC4)c(Cl)c3)n2C)c(F)c1F [Example 195, N-[3-chloro-4-[4-[[2-(dimethylamino)acetyl]amino]piperidine-1-carbonyl]phenyl]-5-(2,3-difluoro-4-methoxy-phenyl)-1-methyl-imidazole-2-carboxamide] | 90 nM | –
COc1ccc(-c2cnc(C(=O)Nc3ccc(C(=O)N4CCN(C(=O)CC5CCNCC5)CC4)c(Cl)c3)n2C)c(F)c1F [Example 142, N-[3-chloro-4-[4-[2-(4-piperidyl)acetyl]piperazine-1-carbonyl]phenyl]-5-(2,3-difluoro-4-methoxy-phenyl)-1-methyl-imidazole-2-carboxamide; formic acid] | 40 nM | –
COc1ccc(-c2cnc(C(=O)Nc3ccc(C(=O)N4CCN(C(=O)C5CCNCC5)CC4)c(Cl)c3)n2C)cc1C#N [Example 192, N-[3-chloro-4-[4-(piperidine-4-carbonyl)piperazine-1-carbonyl]phenyl]-5-(3-cyano-4-methoxy-phenyl)-1-methyl-imidazole-2-carboxamide formate] | 460 nM | –
Cn1c(-c2ccc(OCC#N)c(F)c2F)cnc1C(=O)Nc1ccc(C(=O)N2CCC(C(=O)N3CCN[C@H](CO)C3)CC2)c(Cl)c1 [Example 86, (S)-N-(3-ehloro-4-(4-(3-(hydroxymethyl)piperazine-1-carbonyl)piperidine-1-carbonyl)phenyl)-5-(4-(cyanomethoxy)-2,3-difluorophenyl)-1-methyl-1H-imidazole-2-carboxamide 2,2,2-trifluoroacetate] | – | 100 nM
COc1ccc(-c2cnc(C(=O)Nc3ccc(C(=O)N4CCC(C(=O)N5CC(N)C5)CC4)c(Cl)c3)n2C)c(F)c1F [Example 33, N-[4-[4-(3-aminoazetidine-1-carbonyl)piperidine-1-carbonyl]-3-chloro-phenyl]-5-(2,3-difluoro-4-methoxy-phenyl)-1-methyl-imidazole-2-carboxamide trifluoroacetate] | 90 nM | –
COc1ccc(-c2cnc(C(=O)Nc3ccc(C(=O)N4CCN(CC(N)=O)CC4)c(Cl)c3)n2C)c(F)c1F [Example 244, N-[4-[4-(2-amino-2-oxo-ethyl)piperazine-1-carbonyl]-3-chloro-phenyl]-5-(2,3-difluoro-4-methoxy-phenyl)-1-methyl-imidazole-2-carboxamide] | 100 nM | –
